Read-outs that look alike come from different tables or passages of the source. Marks after values point to notes of the source that are not given here.
Key:
[1] = test system: MA16/C, sc
Description: (§1) This efficacy may be quantified, for example by the log10 cell kill, which is determined by the following formula:
(§2) log10 cell kill=T-C(days)/3.32×Td
(§3) in which T-C represents the time taken for the cells to grow, which is the mean time in days for the tumors of the treated group (T) to reach a predetermined value (1 g for example) and the tumors of the control group (C) to reach the same value, and Td represents the time in days needed for the volume of the tumor in the control group to double (T. H. Corbett et al., Cancer, 40: 2660-2680 (1977); F. M. Schabel et al., Cancer Drug Development, Part B, Methods in Cancer Research, 17: 3-51, New York, Academic Press Inc. (1979)). A product is considered to be active if the log10 cell kill is greater than or equal to 0.7. A product is considered to be very active if the log10 cell kill is greater than 2.8.
The effectiveness of irinotecan combination chemotherapy methods were tested in a dose response study in a murine tumor model. Three arms were evaluated for tolerance and efficacy. Tolerance was measured by mortality, body weight loss at nadir, host recovery time, and combination toxicity index. Efficacy end points for solid tumor models were tumor growth delay (T/C), log10 cell kill (LCK, defined above), tumor regressions (i.e., complete remission (CR),or partial remission (PR)). For non-solid tumors, such as leukemia, efficacy was measured as the increase in life span (ILS).
Combination toxicity index (CTI) was calculated as the sum of the fraction of LD10's for each agent used in each combination (Cancer Treatment Reports, 66(5): 1187-1200 (1982)). The LD10 for the single agent was obtained by plotting the toxicity of that agent and the dosage in mg/kg as a log probit graph. Subsequently, the CTI LD10 was obtained by plotting as a log probit graph the observed lethality and the corresponding CTI calculated as the sum of the fraction of the LD10 of each single agent. When the CTI equals one, only 50% of the LD10's of each agent can be used in combination without additional toxicity, and when the CTI equals two, 100% of the LD10's of each agent can be used in combination without additional toxicity.

[2] = test system: P388; type: in vivo, mice; conditions: for %ILS: highest non-toxic dose
[3] = test system: P388/CPT; experiment: Chemosensitivity of camptothecin-resistant i.p. P388/CPT leukemia, increase in life span; type: in vivo, mice; conditions: for Comment: response of P388/CPT
Description: Cross-resistance was measured in murine leukemia cell lines. P388/CPT is a camptothecin-resistant leukemia that was established in vitro (Biochem. Pharmacol., 45: 339 (1993) and maintained in vivo by i.p. passages in DBA2 female mice. The chemosensitivity of i.p. P388/CPT was evaluated with i.v. P388 sensitive reference drugs with different mechanisms of action. Antitumor efficacy was determined at the highest non-toxic dose as percent increase in life span (ILS), where:
ILS=100×[(median day of death (MDD) of treated mice)−(MDD control mice)]÷(MDD control mice)
A minimal level of activity equals an ILS of greater than 26%. […] Table III tabulates the results from this study.

[4] = test system: mammary adenocarcinoma MA16/C/sp
Description: as §1, §2, §3
The effect of the combination of CPT-11 and cyclophosphamide was evaluated in a three arn study in mice bearing mammary adenocarcinoma MA16/C/sp. In the first arm, four dose levels of CPT-11 were given orally on days three through seven. In the second arm, five dose levels of cyclophosphamide were given intravenously on days three, five and seven. In the combination third arm, eight dosage levels of CPT-11 were administered orally on days three through seven, with administration of eight dosage levels of cyclophosphamide intravenously on days three, five and seven. This third arm illustrated an example of semi-simultaneous administration.

[5] = test system: C51; experiment: Oral vs i.v. irinotecan, C51 tumor in BALB/c mice; type: in vivo; conditions: days 5, 7, 9, 13, 15, twice daily; for LCK: optimal total dose
Description: as §2
(§4) Three arms were evaluated for tolerance and efficacy.
(§5) The optimal total dose for oral and intravenous administration routes for irinotecan alone in various murine models is indicated in Table II.

[6] = test system: P03; experiment: Oral vs i.v. irinotecan, P03 tumor in B6D2F1 mice; type: in vivo; conditions: twice daily; for LCK: optimal total dose
Description: as §2, §4, §5

[7] = test system: MA16/C; experiment: Oral vs i.v. irinotecan, MA16/C tumor in C3H/HeN mice; type: in vivo; conditions: for Optimal Total Dose: days 5-9; for LCK: days 5-9, optimal total dose
Description: as §2, §4, §5

[8] = Tolerance of oral vs i.v. irinotecan in tumor bearing mice; type: in vivo; conditions: both methods of administration (oral and i.v.)
Description: as §4

[9] = test system: GOS; experiment: Oral vs i.v. irinotecan, GOS tumor in B6D2F1 mice; type: in vivo; conditions: for LCK: optimal total dose
Description: as §2, §4, §5

[10] = test system: C26; experiment: Oral vs i.v. irinotecan, C26 tumor in BALB/c mice; type: in vivo; conditions: for LCK: optimal total dose
Description: as §2, §4, §5

[11] = CPA i.v. 37.0 mg/kg/adm, days 3, 5, 7
[12] = CPA i.v. 60.0 mg/kg/adm, days 3, 5, 7
[13] = CPA i.v. 97.0 mg/kg/adm, days 3, 5, 7 (HNTD)
[14] = CPA i.v. 156.0 mg/kg/adm, days 3, 5, 7
[15] = CPT-11 p.o. 25.0 mg/kg/adm, days 3-7
[16] = CPT-11 p.o. 40.0 mg/kg/adm, days 3-7 (HNTD)

## O=P1(N(CCCl)CCCl)NCCCO1 (centres unmarked) [CPA, cyclophosphamide]
[1]; cyclophosphamide, i.v. alone, days 3, 5, 7
  HNTD Dose: 291 mg/kg
[1]; cyclophosphamide, i.v. alone, days 3, 5, 7, at HNTD
  LCK: 2.8
[2]; i.v.
  sensitivity of the camptothecin sensitive cell line: very sensitive
  %ILS: 245%
[3]; i.v., highest non-toxic dose
  %ILS: 153%
  TFS: 1/5
[3]; i.v., listed as Cyclophosphamide
  Comment: sensitive
[3]; i.v., listed as cyclophosphamide
  Comment: very sensitive
[4]; CPA i.v. 23.0 mg/kg/adm, days 3, 5, 7
  Comments: Inactive
[4]; [11]
  Comments: Active
  Log10 cell kill: 1.0
  T-C: 3.8 days
  Time for median tumor to reach 750 mg: 12.0 days
[4]; [12]
  Comments: Active
  Log10 cell kill: 1.9
  T-C: 6.9 days
  Time for median tumor to reach 750 mg: 15.1 days
[4]; CPA i.v. 97.0 mg/kg/adm, days 3, 5, 7
  Comments: HNTD Highly Active
[4]; [13]
  Log10 cell kill: 2.8
  T-C: 10.3 days
  Time for median tumor to reach 750 mg: 18.5 days
[4]; [14]
  Comments: Toxic
  Log10 cell kill: NTBA
  T-C (days): NTBA
  Time for median tumor to reach 750 mg in days: NTBA

## CC[C@@]1(O)C(=O)OCc2c1cc1n(c2=O)Cc2cc3ccccc3nc2-1 [CPT, camptothecin]
[2]; sc
  %ILS: 82%
[3]; sc, highest non-toxic dose
  %ILS: 0%
[3]; sc
  Comment: resistant

## CCc1c2c(nc3ccc(OC(=O)N4CCC(N5CCCCC5)CC4)cc13)-c1cc3c(c(=O)n1C2)COC(=O)[C@]3(O)CC [CPT-11, irinotecan]
[1]; CPT-11, i.v. alone, days 3-7
  HNTD Dose: 200 mg/kg
[1]; CPT-11, i.v. alone, days 3-7, at HNTD
  LCK: 2.0
[5]; i.v.
  Optimal Total Dose: 615 mg/kg
  LCK: 3.0
[5]; oral
  Optimal Total Dose: 845 mg/kg
  LCK: 2.5
[6]; i.v.
  Optimal Total Dose: 346.2 mg/kg
  LCK: 3.2†
[6]; oral
  Optimal Total Dose: 900 mg/kg
  LCK: 3.4†
[7]; i.v.
  Optimal Total Dose: 130.5 mg/kg
  LCK: 2.6
[7]; oral
  Optimal Total Dose: 230.5 mg/kg
  LCK: 2.7
[2]; i.v.
  %ILS: 91%
[3]; i.v., highest non-toxic dose
  %ILS: 0%
[3]; i.v.
  Comment: resistant
[8]
  body weight loss: 8.5%
  nadir: 7 days post last administration
[9]; i.v., days 3, 5, 7 twice daily
  Optimal Total Dose: 346.2 mg/kg
  LCK: 2.2
[9]; oral, days 3-7, twice daily
  Optimal Total Dose: 900 mg/kg
  LCK: 2.1
[10]; i.v., twice daily
  Optimal Total Dose: 228 mg/kg
  LCK: 0.7
[10]; oral, days 3-7, twice daily
  Optimal Total Dose: 558 mg/kg
  LCK: 0.9
[4]; [15]
  Comments: Active
  Log10 cell kill: 1.1
  T-C: 4.1 days
  Time for median tumor to reach 750 mg: 12.3 days
[4]; CPT-11 p.o. 40.0 mg/kg/adm, days 3-7
  Comments: HNTD Active
[4]; [16]
  Log10 cell kill: 2.0
  T-C: 7.3 days
  Time for median tumor to reach 750 mg: 15.5 days
[4]; CPT-11 p.o. 64.0 mg/kg/adm, days 3-7
  Comments: Toxic
[4]; mouse, in vivo, po, 103 mg/kg
  Comments: Toxic

From patent US6548488B2, “Composition comprising camptothecin or a camptothecin derivative and an alkylating agent for the treatment of cancer” (priority 2000, dated 2003)
